Assay results reported in ChEMBL document CHEMBL5321210, “N-adamantyl-anthranil amide derivatives: New selective ligands for the cannabinoid receptor subtype 2 (CB2R)” (Eur J Med Chem, 2023).
Active and inactive are the calls of the source. The rule behind the calls is not given here.

Columns and labels:
Cannabinoid receptor 1 [1] = molecular target: T1, Cannabinoid receptor 1 (Homo sapiens, UniProt P21554); assay: Displacement of [3H]-CP55940 from human CB1 receptor expressed in HEK293 cell membrane at 1 uM incubated for 60 mins by radioligand competition binding assay relative to control; assay type: cell membranes
T1 sequence (P21554 whole entry): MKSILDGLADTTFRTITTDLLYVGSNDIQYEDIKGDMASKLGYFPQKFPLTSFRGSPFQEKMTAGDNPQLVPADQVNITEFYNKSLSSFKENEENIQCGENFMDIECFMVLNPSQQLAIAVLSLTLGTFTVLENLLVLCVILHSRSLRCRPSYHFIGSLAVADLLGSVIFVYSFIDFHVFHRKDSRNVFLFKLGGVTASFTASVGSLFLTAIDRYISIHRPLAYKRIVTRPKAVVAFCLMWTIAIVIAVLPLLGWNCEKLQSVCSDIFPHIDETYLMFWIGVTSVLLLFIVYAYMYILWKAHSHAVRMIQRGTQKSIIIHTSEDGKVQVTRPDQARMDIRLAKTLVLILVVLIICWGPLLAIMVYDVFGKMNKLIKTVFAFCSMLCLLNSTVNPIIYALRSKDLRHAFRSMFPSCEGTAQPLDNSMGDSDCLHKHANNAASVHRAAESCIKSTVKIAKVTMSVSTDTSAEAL

Cannabinoid receptor 2 [2] = molecular target: T2, Cannabinoid receptor 2 (Homo sapiens, UniProt P34972); assay: Displacement of [3H]-CP55940 from human CB2 receptor expressed in HEK293 cell membrane at 1 uM incubated for 90 mins by radioligand competition binding assay relative to control; assay type: cell membranes
T2 sequence (P34972 whole entry): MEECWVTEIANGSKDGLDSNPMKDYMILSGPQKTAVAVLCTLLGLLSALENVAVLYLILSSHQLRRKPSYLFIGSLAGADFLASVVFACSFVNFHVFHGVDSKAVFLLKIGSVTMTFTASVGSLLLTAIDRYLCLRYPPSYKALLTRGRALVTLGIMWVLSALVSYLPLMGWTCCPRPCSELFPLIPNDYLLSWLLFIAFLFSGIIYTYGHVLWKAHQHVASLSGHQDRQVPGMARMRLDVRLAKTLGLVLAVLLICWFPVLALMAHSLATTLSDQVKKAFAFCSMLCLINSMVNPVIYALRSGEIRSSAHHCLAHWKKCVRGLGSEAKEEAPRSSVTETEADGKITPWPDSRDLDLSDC

Cannabinoid receptor 2 [3] = molecular target: T2, Cannabinoid receptor 2; assay: Displacement of [3H]-CP55940 from human CB2 receptor expressed in HEK293 cell membrane assessed as inhibition constant incubated for 90 mins by radioligand competition binding assay; assay type: cell membranes
Cannabinoid receptor 2 [4] = molecular target: T2, Cannabinoid receptor 2; assay: Agonist activity at human CB2 receptor expressed in CHO-K1 cells assessed as inhibition of NKH-477 induced cAMP production incubated for 30 mins by luminescence based analysis; assay type: functional, cell-based
Cannabinoid receptor 2 [5] = molecular target: T2, Cannabinoid receptor 2; assay: Agonist activity at human CB2 receptor expressed in CHO-K1 cells assessed as inhibition of NKH-477 induced cAMP production by measuring maximal efficacy incubated for 30 mins by luminescence based analysis relative to control; assay type: functional, cell-based; details: filed as agonist
THP-1 [6] = assay: Antiinflammatory activity against LPS-activated PMA-differentiated human THP-1 macrophages assessed as decrease in IL-6 production at 1 to 10 uM incubated for 24 hrs by ELISA coupled qRT-PCR analysis; assay type: functional, cell-based; details: dose 1-10 µM
THP-1 [7] = assay: Antiinflammatory activity against LPS-activated human THP-1 monocytes assessed as decrease in IL-6 production at 1 to 10 uM incubated for 24 hrs by ELISA coupled qRT-PCR analysis; assay type: functional, cell-based; details: dose 1-10 µM
THP-1 [8] = assay: Antiinflammatory activity against LPS-activated human THP-1 monocytes assessed as increase in IL-10 production at 1 to 10 uM incubated for 24 hrs by ELISA coupled qRT-PCR analysis; assay type: functional, cell-based; details: dose 1-10 µM
Cannabinoid receptor 2 [9] = molecular target: T2, Cannabinoid receptor 2; assay: Antagonist activity at human CB2 receptor expressed in CHO-K1 cells assessed as reversal of JWH-133 mediated cAMP reduction preincubated with compound for 15 mins followed by JWH-133 addition and measured after 30 mins in the presence of NKH-477 by luminescence based analysis; assay type: functional, cell-based; details: filed as antagonist, time 45.0 min
THP-1 [10] = assay: Antiinflammatory activity in PMA-differentiated human THP-1 macrophages assessed as decrease in IFN-gamma production at 1 to 10 uM incubated for 24 hrs by ELISA coupled qRT-PCR analysis; assay type: functional, cell-based; details: dose 1-10 µM
THP-1 [11] = assay: Antiinflammatory activity in human THP-1 monocytes assessed as increase in IL-4 production at 1 to 10 uM incubated for 24 hrs by ELISA coupled qRT-PCR analysis; assay type: functional, cell-based; details: dose 1-10 µM
THP-1 [12] = assay: Antiinflammatory activity against LPS-activated PMA-differentiated human THP-1 macrophages assessed as decrease in IL-1beta production at 1 to 10 uM incubated for 24 hrs by ELISA coupled qRT-PCR analysis; assay type: functional, cell-based; details: dose 1-10 µM
THP-1 [13] = assay: Antiinflammatory activity in human THP-1 monocytes assessed as decrease in IL-1beta production at 1 to 10 uM incubated for 24 hrs by ELISA coupled qRT-PCR analysis; assay type: functional, cell-based; details: dose 1-10 µM
THP-1 [14] = assay: Antiinflammatory activity against LPS-activated PMA-differentiated human THP-1 macrophages assessed as increase in IL-4 production at 10 uM incubated for 24 hrs by ELISA coupled qRT-PCR analysis; assay type: functional, cell-based
THP-1 [15] = assay: Antiinflammatory activity against LPS-activated human THP-1 monocytes assessed as decrease in IL-1beta production at 1 to 10 uM incubated for 24 hrs by ELISA coupled qRT-PCR analysis; assay type: functional, cell-based; details: dose 1-10 µM
THP-1 [16] = assay: Antiinflammatory activity in human THP-1 monocytes assessed as decrease in IFN-gamma production at 1 to 10 uM incubated for 24 hrs by ELISA coupled qRT-PCR analysis; assay type: functional, cell-based; details: dose 1-10 µM
THP-1 [17] = assay: Antiinflammatory activity in human THP-1 monocytes assessed as increase in IL-10 production at 1 to 10 uM incubated for 24 hrs by ELISA coupled qRT-PCR analysis; assay type: functional, cell-based; details: dose 1-10 µM
THP-1 [18] = assay: Antiinflammatory activity against LPS-activated human THP-1 monocytes assessed as increase in IL-4 production at 1 to 10 uM incubated for 24 hrs by ELISA coupled qRT-PCR analysis; assay type: functional, cell-based; details: dose 1-10 µM
THP-1 [19] = assay: Antiinflammatory activity in PMA-differentiated human THP-1 macrophages assessed as decrease in IL-1beta production at 1 to 10 uM incubated for 24 hrs by ELISA coupled qRT-PCR analysis; assay type: functional, cell-based; details: dose 1-10 µM
THP-1 [20] = assay: Antiinflammatory activity in human THP-1 monocytes assessed as decrease in IL-6 production at 1 to 10 uM incubated for 24 hrs by ELISA coupled qRT-PCR analysis; assay type: functional, cell-based; details: dose 1-10 µM
THP-1 [21] = assay: Antiinflammatory activity against LPS-activated PMA-differentiated human THP-1 macrophages assessed as decrease in IFN-gamma production at 1 to 10 uM incubated for 24 hrs by ELISA coupled qRT-PCR analysis; assay type: functional, cell-based; details: dose 1-10 µM
THP-1 [22] = assay: Antiinflammatory activity against LPS-activated PMA-differentiated human THP-1 macrophages assessed as increase in IL-10 production at 10 uM incubated for 24 hrs by ELISA coupled qRT-PCR analysis; assay type: functional, cell-based
THP-1 [23] = assay: Antiinflammatory activity in PMA-differentiated human THP-1 macrophages assessed as decrease in TNF-alpha production at 1 to 10 uM incubated for 24 hrs by ELISA coupled qRT-PCR analysis; assay type: functional, cell-based; details: dose 1-10 µM
THP-1 [24] = assay: Antiinflammatory activity in PMA-differentiated human THP-1 macrophages assessed as decrease in IL-6 production at 1 to 10 uM incubated for 24 hrs by ELISA coupled qRT-PCR analysis; assay type: functional, cell-based; details: dose 1-10 µM
THP-1 [25] = assay: Antiinflammatory activity in human THP-1 monocytes assessed as decrease in TNF-alpha production at 1 to 10 uM incubated for 24 hrs by ELISA coupled qRT-PCR analysis; assay type: functional, cell-based; details: dose 1-10 µM
THP-1 [26] = assay: Antiinflammatory activity in PMA-differentiated human THP-1 macrophages assessed as increase in IL-4 production at 1 to 10 uM incubated for 24 hrs by ELISA coupled qRT-PCR analysis; assay type: functional, cell-based; details: dose 1-10 µM
THP-1 [27] = assay: Antiinflammatory activity in PMA-differentiated human THP-1 macrophages assessed as increase in IL-10 production at 1 to 10 uM incubated for 24 hrs by ELISA coupled qRT-PCR analysis; assay type: functional, cell-based; details: dose 1-10 µM
THP-1 [28] = assay: Antiinflammatory activity against LPS-activated human THP-1 monocytes assessed as decrease in IFN-gamma production at 1 to 10 uM incubated for 24 hrs by ELISA coupled qRT-PCR analysis; assay type: functional, cell-based; details: dose 1-10 µM
THP-1 [29] = assay: Antiinflammatory activity against LPS-activated human THP-1 monocytes assessed as decrease in TNF-alpha production at 1 to 10 uM incubated for 24 hrs by ELISA coupled qRT-PCR analysis; assay type: functional, cell-based; details: dose 1-10 µM
THP-1 [30] = assay: Antiinflammatory activity against LPS-activated PMA-differentiated human THP-1 macrophages assessed as decrease in TNF-alpha production at 1 to 10 uM incubated for 24 hrs by ELISA coupled qRT-PCR analysis; assay type: functional, cell-based; details: dose 1-10 µM
Cannabinoid receptor 1 [31] = molecular target: T1, Cannabinoid receptor 1; assay: Displacement of [3H]-CP55940 from human CB1 receptor expressed in HEK293 cell membrane assessed as inhibition constant incubated for 60 mins by radioligand competition binding assay; assay type: cell membranes

CCCCCCCNc1ccc(Br)cc1C(=O)NC12CC3CC(CC(C3)C1)C2
Activity (Cannabinoid receptor 1 [1]): 8%
Activity (Cannabinoid receptor 2 [2]): 16%

CCCCCNc1ccc(Br)cc1C(=O)NC12CC3CC(CC(C3)C1)C2
Activity (Cannabinoid receptor 1 [1]): 5%
Ki (Cannabinoid receptor 2 [3]): 456 nM

CCCCCNc1ccc(-c2ccc(C(=O)OC)cc2)cc1C(=O)NC12CC3CC(CC(C3)C1)C2
Activity (Cannabinoid receptor 1 [1]): 6%
Activity (Cannabinoid receptor 2 [2]): 12%

CCCCCNc1ccc(-c2ccc(C)cc2)cc1C(=O)NC12CC3CC(CC(C3)C1)C2
Activity (Cannabinoid receptor 1 [1]): 16%
Ki (Cannabinoid receptor 2 [3]): 129 nM

CCCCCCCNc1ccc(-c2cccnc2)cc1C(=O)NC12CC3CC(CC(C3)C1)C2
Activity (Cannabinoid receptor 1 [1]): 16%
Activity (Cannabinoid receptor 2 [2]): 31%

CCCCCNc1ccc(-c2ccc(OC)cc2)cc1C(=O)NC12CC3CC(CC(C3)C1)C2
Activity (Cannabinoid receptor 1 [1]): 23%
Ki (Cannabinoid receptor 2 [3]): 148 nM

CCCCCNc1ccc(-c2cccc(C)c2)cc1C(=O)NC12CC3CC(CC(C3)C1)C2
Activity (Cannabinoid receptor 1 [1]): 14%
Activity (Cannabinoid receptor 2 [2]): 37%

CCCCCCNc1ccc(-c2cccs2)cc1C(=O)NC12CC3CC(CC(C3)C1)C2
Activity (Cannabinoid receptor 1 [1]): 32%
Ki (Cannabinoid receptor 2 [3]): 465 nM

CCCCCCNc1ccc(-c2cccnc2)cc1C(=O)NC12CC3CC(CC(C3)C1)C2
Activity (Cannabinoid receptor 1 [1]): 9%
Ki (Cannabinoid receptor 2 [3]): 6500 nM

CCCCCCCNc1ccccc1C(=O)NC12CC3CC(CC(C3)C1)C2
Activity (Cannabinoid receptor 1 [1]): 4%
Ki (Cannabinoid receptor 2 [3]): 923 nM

CCCCCNc1ccc(-c2cccnc2)cc1C(=O)NC12CC3CC(CC(C3)C1)C2
Activity (Cannabinoid receptor 1 [1]): 1%
EC50 (Cannabinoid receptor 2 [4]): 10400 nM
Ki (Cannabinoid receptor 2 [3]): 330 nM
Emax (Cannabinoid receptor 2 [5]): 98.1%

CCCCCCNc1ccccc1C(=O)NC12CC3CC(CC(C3)C1)C2
Activity (Cannabinoid receptor 1 [1]): 6%
Ki (Cannabinoid receptor 2 [3]): 485 nM

Cc1c(C(=O)NC23CC4CC(CC(C4)C2)C3)nn(CCCCCO)c1-c1ccccc1
Ki (Cannabinoid receptor 2 [3]; hek293): 0.08 nM

CCCCCNc1ccc(-c2cccc(OC)c2)cc1C(=O)NC12CC3CC(CC(C3)C1)C2
Activity (Cannabinoid receptor 1 [1]): 28%
Activity (Cannabinoid receptor 2 [2]): 25%

CCCCCCCNc1ccc(-c2ccccc2)cc1C(=O)NC12CC3CC(CC(C3)C1)C2
Activity (Cannabinoid receptor 1 [1]): 22%
Ki (Cannabinoid receptor 2 [3]): 1180 nM

CCCCCNc1ccc(-c2cccc(F)c2)cc1C(=O)NC12CC3CC(CC(C3)C1)C2
Activity (Cannabinoid receptor 1 [1]; filed as agonist): 42%
EC50 (Cannabinoid receptor 2 [4]): 5250 nM
Ki (Cannabinoid receptor 2 [3]): 71 nM
Emax (Cannabinoid receptor 2 [5]): 86.6%

CCCCCCCNc1ccc(-c2cccs2)cc1C(=O)NC12CC3CC(CC(C3)C1)C2
Activity (Cannabinoid receptor 1 [1]): 7%
EC50 (Cannabinoid receptor 2 [4]): 5600 nM
Ki (Cannabinoid receptor 2 [3]): 160 nM
Emax (Cannabinoid receptor 2 [5]): 75%

CCCCCNc1ccc(-c2cccs2)cc1C(=O)NC12CC3CC(CC(C3)C1)C2
Activity (Cannabinoid receptor 1 [1]): 15%
Ki (Cannabinoid receptor 2 [3]): 2600 nM

COc1ccc2c(c1)c(CCN1CCOCC1)c(C)n2C(=O)c1cccc(Cl)c1Cl
Ki (Cannabinoid receptor 2 [3]): 6.9 nM

CCCCCNc1ccc(-c2cccc(C(N)=O)c2)cc1C(=O)NC12CC3CC(CC(C3)C1)C2
Activity (Cannabinoid receptor 1 [1]): 3%
Activity (Cannabinoid receptor 2 [2]): 21%

CCCC(C)(C)c1ccc2c(c1)OC(C)(C)[C@@H]1CC=C(C)C[C@@H]21
EC50 (Cannabinoid receptor 2 [4]): 169000 nM

CCCCCNc1ccc(-c2ccccc2)cc1C(=O)NC1CCCCC1
Activity (Cannabinoid receptor 1 [1]): 3%
Activity (Cannabinoid receptor 2 [2]): 21%

CCCCCCNc1ccc(Br)cc1C(=O)NC12CC3CC(CC(C3)C1)C2
Activity (Cannabinoid receptor 1 [1]): 17%
Activity (Cannabinoid receptor 2 [2]): 26%

CCCCCCNc1ccc(-c2ccccc2)cc1C(=O)NC12CC3CC(CC(C3)C1)C2
Activity (Cannabinoid receptor 1 [1]): 35%
Ki (Cannabinoid receptor 2 [3]): 209 nM

CCCCCNc1ccc(-c2ccccc2)cc1C(=O)NC12CC3CC(CC(C3)C1)C2
Activity (THP-1 [6]): inactive
Activity (Cannabinoid receptor 1 [1]): 5%
Activity (THP-1 [7]): inactive
Activity (THP-1 [8]): inactive
Activity (Cannabinoid receptor 2 [9]): Active
Activity (THP-1 [10]): inactive
Activity (THP-1 [11]): inactive
Activity (THP-1 [12]): inactive
Activity (THP-1 [13]): inactive
Activity (THP-1 [14]): inactive
Activity (THP-1 [15]): inactive
Activity (THP-1 [16]): inactive
Activity (THP-1 [17]): inactive
Activity (THP-1 [18]): inactive
Activity (THP-1 [19]): inactive
Activity (THP-1 [20]): inactive
Activity (THP-1 [21]): inactive
Activity (THP-1 [22]): inactive
Activity (THP-1 [23]): inactive
Activity (THP-1 [24]): inactive
Ki (Cannabinoid receptor 2 [3]): 47.8 nM
Activity (THP-1 [25]): inactive
Activity (THP-1 [26]): inactive
Activity (THP-1 [27]): inactive
Activity (THP-1 [28]): inactive
Activity (THP-1 [29]): inactive
Activity (THP-1 [30]): inactive

CCCCCNc1ccc(-c2ccc(C(N)=O)cc2)cc1C(=O)NC12CC3CC(CC(C3)C1)C2
Activity (Cannabinoid receptor 1 [1]): 14%
Activity (Cannabinoid receptor 2 [2]): 19%

CCCCCNc1ccc(-c2ccc(F)cc2)cc1C(=O)NC12CC3CC(CC(C3)C1)C2
Ki (Cannabinoid receptor 1 [31]): 754 nM
Ki (Cannabinoid receptor 2 [3]): 89.5 nM
